The subject of assay [1] is normal human keratinocytes. Description: Release of second messenger in UV-A-irradiated keratinocytes (Example A). The class given is cell-based. The note with it: 2 mM for 24 hours. The method, then: Normal human keratinocytes which are left untreated or have been treated with a 2 mM solution of RONACARE™ ectoin for 24 hours are subjected to a UV-A radiation dose of 30 J/cm^2 (wavelength of the UV-A radiation: 340-400 nm). […] The cells are harvested 1 hour after irradiation (=maximum UV-A-induced second messenger formation). The release of the second messenger was determined.

Assay [2] concerns normal human keratinocytes. Description: Inhibition of UV-A-induced ceramide formation, quantitative HPTLC (Example B1). It is filed as cell-based. The following applies: 1 mM pre-incubation for 24 hours, UVA 30 J/cm^2, 1 hour after irradiation, FIG. 1. The protocol:
The concentration of a second messenger (ceramide) in UVA-irradiated normal human keratinocytes which have either been pretreated with 1 mM RONACARE™ ectoin or are untreated compared with unirradiated keratinocytes is measured using a quantitative HPTLC method. (A) Un-pretreated control, (B) pre-incubated only with the cell medium for 24 hours, (C) pre-incubated with 1 mM RONACARE™ ectoin for 24 hours. The cells pre-treated in this way are irradiated with a single dose of UVA of 30 J/cm^2 (radiation source: Sellamed 24000). The cells are “harvested” 1 hour after irradiation, a lipid extraction is carried out, and the concentration of the second messenger is determined by quantitative HPTLC. Methodological details are given in Grether-Beck Set al., EMBO J 19: 5793-5800, 2000. […] The data are shown as histograms of ectoin (mM) against ceramide (ng).

In assay [3] the test system is transcription factor AP-2. Description: Inhibition of UV-A-induced AP-2 activation, gel electrophoresis mobility shift assay (Example B2). The class given is cell-based. The following applies: human keratinocytes, 1 mM pre-incubation for 24 hours, UV-A 30 J/cm^2, FIG. 2. The method, then: The determination of the activation of transcription factor AP-2 is carried out with the aid of gel electrophoresis mobility shift assays (GEMSA). To this end, a nucleus extract (according to J.D. Dignam, P.L.Martin, B.S. Skastry, R.G.G. Roeder, Methods Enzymol 101 (1983) 582-598) of human keratinocytes which had previously been irradiated for 1 hour with 30 J/cm^2 of UV-A light is incubated in comparison with an unirradiated control with the consensus oligonucleotide sequence of ICAM-1 promoter (in accordance with G.G. Stade, G. Messer, G. Riethmüller, J.P. Johannson; Immunobiology 182 (1990) 79-87). The amount of bound AP-2 is subsequently determined by means of GEMSA. (A) Un-pretreated, unirradiated control, (B) pre-incubated with 1 mM RONACARE™ ectoin for 24 hours and irradiated with a single dose of 30 J/cm^2, or (C) pre-incubated only with the cell medium for 24 hours and irradiated with 30 J/cm^2. The UVA irradiation results in activation of transcription factor AP-2 after UVA exposure.

Another assay concerns ICAM-1. As to the kind of experiment: Inhibition of UV-A-induced ICAM-1 expression, differential RT-PCR (Example B3). The following applies: keratinocytes, 1 mM pre-incubation for 24 hours, UVA 30 J/cm^2, relative to β-actin, all points in time, FIG. 3. The class given is cell-based, human. The protocol:
The expression of ICAM-1 is measured using differential reverse transcriptase PCR (RT -PCR) and the kit from Applied Biosystem. In order to take into account the normal variations in gene expression of skin cells, the ICAM-1 expression is compared with the housekeeping gene β-actin formed constitutively. Semiquantitative analysis of the RT-PCR is carried out by ion exchange chromatography using a UV spectrophotometer (A260). (A) Un-pretreated, irradiated control, (B) pre-incubated with 1 mM RONACARE™ ectoin for 24 hours and irradiated with a single dose of 30 J/cm^2, or (C) pre-incubated with 1 mM ectoin for 24 hours, unirradiated. The UVA radiation induces an increase in ICAM-1 expression.

The next assay relates to dermal human fibroblasts. As to the kind of experiment: UVA radiation-induced formation of mitochondrial DNA mutations (common deletion), PCR (Example B4). The class given is cell-based. The note with it: 1 mM pretreatment, 8 J/cm^2 UVA three times daily, four successive days, three weeks, FIG. 4. From the text:
Dermal human fibroblasts are cultivated in Eagle minimal medium. The cells are irradiated three times daily with 8 J/cm^2 of UVA on four successive days over a total of three weeks. The mt-DNA is then extracted and amplified using PCR. Further details on the method are described in detail in M. Berneburg, S. Grether-Beck, V. Kürten, Th. Ruzicka, K. Briviba, H. Sies, J. Krutmann, J Biol Chem 274 (1999) 15345-15349 and M. Berneburg, N. Gattermann, H. Stege, M. Grewe, K. Vogelsang, Th. Ruzicka, J. Krutmann, Photobiol. 66 (1997) 271-275.

Take `CC1=N[C@H](C(=O)O)CCN1` [RONACARE™ ectoin, (S)-1,4,5,6-tetrahydro-2-methyl-4-pyrimidinecarboxylic acid]: the “UV-A-induced release of the second messenger” value in assay [1] (UV-A 30 J/cm^2) is given as “inhibits the UV-A-induced release of the second messenger”. The “Increase in second messenger” value in assay [1] (UV-A 30 J/cm^2 (340-400 nm), harvested 1 hour after irradiation) turned out to be 5.65 ng. Moreover, the “ceramide formation induced by UVA radiation” value in assay [2] is given as “completely suppresses ceramide formation”. In assay [3], the “activation of transcription factor AP-2 after UVA exposure” value is “suppressed virtually completely”. In addition, the “ICAM-1 induction induced by UVA radiation” value with ICAM-1 was “virtually completely eliminate ICAM-1 induction”. In the assay on dermal human fibroblasts, the “formation of mt-DNA mutations” value is given as “prevented the formation of mt-DNA mutations”.
